Experimental findings from ChEMBL document CHEMBL1150862, “Synthetic derivatives of abietic acid with radical scavenging activity” (J Nat Prod, 2001) are described below.

Molecules are shown by their SMILES. Active and inactive are the calls of the source. The rule behind the calls is not given here.

The assay deals with Radical scavenging activity. The assay can be described thus: Antioxidant activity assessed as DPPH radical scavenging activity by spectrophotometric assay. The class given is functional. (DPPH is a stable violet radical that fades when it is reduced.)
Consider `COc1ccccc1Nc1cc2c(c(N)c1C(C)C)C[C@@H]1[C@](C)(CCC[C@@]1(C)C(=O)O)C2`, for which the result was Active.

For `COc1ccc(Nc2c(C(C)C)ccc3c2C[C@@H]2[C@](C)(CCC[C@@]2(C)C(=O)O)C3)cc1`, the result was Active.

With `COc1ccccc1Nc1cc2c(c([N+](=O)[O-])c1C(C)C)C[C@@H]1[C@](C)(CCC[C@@]1(C)C(=O)O)C2`, the result was Active.

For `COc1ccccc1Nc1c(C(C)C)ccc2c1C[C@@H]1[C@](C)(CCC[C@@]1(C)C(=O)O)C2`, the result was Active.

For the compound `COc1ccccc1Nc1cc2c(cc1C(C)C)C[C@@H]1[C@](C)(CCC[C@@]1(C)C(=O)O)C2`, the result was Active.

Regarding `CC(C)c1c(Nc2ccccc2)cc2c(c1Nc1ccccc1)C[C@@H]1[C@](C)(CCC[C@@]1(C)C(=O)O)C2`, the result was Active.

For `COc1ccc(Nc2cc3c(c(N)c2C(C)C)C[C@@H]2[C@](C)(CCC[C@@]2(C)C(=O)O)C3)cc1`, the outcome was Active.

For `COc1ccc(Nc2cc3c(c(Nc4ccc(OC)cc4)c2C(C)C)C[C@@H]2[C@](C)(CCC[C@@]2(C)C(=O)O)C3)cc1`, the outcome was Active.

For the compound `CC(C)c1ccc2c(c1Nc1ccccc1)C[C@@H]1[C@](C)(CCC[C@@]1(C)C(=O)O)C2`, the outcome was Active.

For the compound `COc1ccc(Nc2cc3c(cc2C(C)C)C[C@@H]2[C@](C)(CCC[C@@]2(C)C(=O)O)C3)cc1`, the result was Active.

In the case of `COc1ccccc1Nc1cc2c(c(Nc3ccccc3OC)c1C(C)C)C[C@@H]1[C@](C)(CCC[C@@]1(C)C(=O)O)C2`, the result was Active.

`COc1ccc(Nc2cc3c(c([N+](=O)[O-])c2C(C)C)C[C@@H]2[C@](C)(CCC[C@@]2(C)C(=O)O)C3)cc1`: the outcome was Active.

Take `CC(C)c1c(Nc2ccccc2)cc2c(c1[N+](=O)[O-])C[C@@H]1[C@](C)(CCC[C@@]1(C)C(=O)O)C2`: the outcome was Active.

`CC(C)c1cc2c(cc1Nc1ccccc1)C[C@@]1(C)CCC[C@@](C)(C(=O)O)[C@@H]1C2`: the outcome was Active.

For the compound `CC(C)c1c(Nc2ccccc2)cc2c(c1N)C[C@@H]1[C@](C)(CCC[C@@]1(C)C(=O)O)C2`, the outcome was Active.

For `Cc1cc(C(C)(C)C)c(O)c(C(C)(C)C)c1`, the outcome was Active.
